# Results as given in US8563729B2, “Thienopyridone derivatives as AMP-activated protein kinase (AMPK) activators” (Merck Patent GmbH, priority 2008, dated 2013).
# Columns and labels:
# [1] = molecular target: T1, AMPK protein (recombinant α1β1γ2) (Homo sapiens, UniProt Q13131+Q9Y478); assay: AMPK enzymatic activity (Delfia, AMARA peptide substrate); type: biochemical; settings: compound 30 μM vs AMP 30 μM; 125 μM ATP; ratio 90% or higher = direct activator
# T1 construct: made in house; host or cells: E. coli
# T1 sequence (Q13131 whole entry): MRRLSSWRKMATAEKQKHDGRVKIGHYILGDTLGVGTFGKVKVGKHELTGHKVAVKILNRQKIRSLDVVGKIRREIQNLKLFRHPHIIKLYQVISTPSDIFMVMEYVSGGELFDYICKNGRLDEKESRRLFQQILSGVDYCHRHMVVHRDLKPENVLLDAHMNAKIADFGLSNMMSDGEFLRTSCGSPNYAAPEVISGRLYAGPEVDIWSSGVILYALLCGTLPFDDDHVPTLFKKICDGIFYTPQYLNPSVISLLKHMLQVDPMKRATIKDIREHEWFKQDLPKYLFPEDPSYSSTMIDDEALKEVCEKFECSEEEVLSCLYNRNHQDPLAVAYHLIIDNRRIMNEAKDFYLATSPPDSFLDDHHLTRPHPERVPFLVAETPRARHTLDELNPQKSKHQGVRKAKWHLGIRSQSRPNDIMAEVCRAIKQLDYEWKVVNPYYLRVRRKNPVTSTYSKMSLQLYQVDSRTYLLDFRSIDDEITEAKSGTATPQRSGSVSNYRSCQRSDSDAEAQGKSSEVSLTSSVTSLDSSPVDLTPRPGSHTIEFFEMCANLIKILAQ
# T1 sequence (Q9Y478 whole entry): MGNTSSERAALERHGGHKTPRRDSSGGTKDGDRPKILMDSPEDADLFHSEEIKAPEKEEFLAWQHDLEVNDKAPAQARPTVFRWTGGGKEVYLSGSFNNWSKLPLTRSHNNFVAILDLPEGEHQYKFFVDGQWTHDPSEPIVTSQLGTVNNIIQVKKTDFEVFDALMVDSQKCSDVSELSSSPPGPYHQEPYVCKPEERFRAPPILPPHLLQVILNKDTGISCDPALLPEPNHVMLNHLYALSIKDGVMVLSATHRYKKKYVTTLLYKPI
# T1 sequence (Q9UGJ0 whole entry partner): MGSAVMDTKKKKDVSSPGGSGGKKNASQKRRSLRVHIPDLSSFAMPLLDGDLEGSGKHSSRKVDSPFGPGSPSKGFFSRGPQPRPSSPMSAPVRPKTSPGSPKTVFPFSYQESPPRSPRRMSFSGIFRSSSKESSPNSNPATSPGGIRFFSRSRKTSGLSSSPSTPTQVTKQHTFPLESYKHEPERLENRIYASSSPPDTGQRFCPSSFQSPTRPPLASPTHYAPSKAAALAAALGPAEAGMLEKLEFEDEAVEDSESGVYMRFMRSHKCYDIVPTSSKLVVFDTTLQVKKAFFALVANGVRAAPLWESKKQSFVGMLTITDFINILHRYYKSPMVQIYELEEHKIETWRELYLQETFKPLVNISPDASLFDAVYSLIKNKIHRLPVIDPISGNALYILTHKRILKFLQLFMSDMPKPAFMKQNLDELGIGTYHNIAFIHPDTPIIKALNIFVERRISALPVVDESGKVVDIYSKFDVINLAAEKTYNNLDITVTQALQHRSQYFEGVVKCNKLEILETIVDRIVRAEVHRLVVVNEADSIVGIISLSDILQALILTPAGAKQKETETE
# Description: The following biological test allows the determination of the efficacy of such compounds of formula (I) onto AMPK protein (recombinant α1β1γ2).
# Human recombinant AMPK enzyme was expressed in E. Coli and was reactivated in vitro by LKB1 prior to enzyme activity determination.
# AMPK enzyme activities were assayed by using A Delfia technology. AMPK enzyme activities were carried out in microtiter plates (50 mM Hepes buffer, pH 7.4 with 125 μM ATP respectively) in the presence of a synthetic peptide substrate (AMARAASAAALARRR, the “AMARA” peptide) and activators in serial dilutions. Reactions were initiated by the addition of AMPK (50-100 ng). Following mixing, the plates were incubated for 30 min at room temperature. Enzyme activity was assayed by using an anti-phosphoserine antibody to measure the quantity of phosphate incorporated into the AMARAA.
# (§1) N°: Number of the molecule
# Activity: Ratio between the % of control (basal activity) of compound of formula (I) at 30 μM and the % of control (basal activity) of AMP (natural substrate) at 30 μM.
# Compounds of formula (I) in the table II are considered as direct activator of AMPK if the ratio is 90% or higher.
# [2] = system: H-2 Kb cells; assay: Glucose uptake in H-2 Kb cells (in vitro cellular test); type: cell-based, mouse; settings: H-2 Kb cells differentiated in muscle, 4 hours incubation, 2-deoxy-D-[1,2 3H] glucose uptake 10 min
# Description: Glucose Uptake in H-2 Kb Cells (In Vitro Cellular Test)
# The following cellular test allows the determination of the effect of AMPK activators such as compounds of formula (I) onto glucose uptake in a muscle cellular model.
# H-1-2 Kb cells derived from heterozygous H-2 Kb tsA58 transgenic mouse were grown in 24-well in plates coated with matrigel and were cultured at 33° C. for 4 days under permissive conditions, as described previously by Fryer et al. (Diabetes 49 (12): 1978, 2000).
# For differentiation in muscle, cells were switched to non-permissive culture conditions (37° C. in the absence of interferon-γ). After 3 days, cells were incubated for 4 hours in DMEM 1 g/l glucose culture medium containing different concentrations of the tested molecules. Then glucose uptake was measured by incubating the cells for 10 min with radiolabelled 2-deoxy-D-[1,2 ^3H] glucose. Glucose uptake was terminated by rapidly washing the plates 2 times with ice-cold NaCl 0.9%. The cells were then solubilized in 0.1N NaOH for 30 min. Radioactivity was determined by liquid scintillation counting.
# as §1
# Activity (table III): Concentration of compound (I) for a glucose uptake equal or higher to glucose uptake induced by insulin (170 nM)
# ^++ or **concentration of compound (I) ≦10 micro Molar
# ^+ or *concentration of compound (I) >10 micro Molar
Structure (SMILES),activity: Ratio between the % of control (basal activity) of compound of formula (I) at 30 μM and the % of control (basal activity) of AMP at 30 μM [1],Activity (table III): Concentration of compound (I) for a glucose uptake equal or higher to glucose uptake induced by insulin (170 nM) [2]
Cc1cc(O)c(-c2c(Cl)sc3[nH]c(=O)c(-c4ccccc4)c(O)c23)cc1C [Compound 207],213%,+ (^+ or *concentration of compound (I) >10 micro Molar)
"N#Cc1sc2[nH]c(=O)c(-c3ccccc3)c(O)c2c1-c1ccccc1 [Compound 9, 2-cyano-3,5-diphenyl-4-hydroxy-6,7-dihydro-thieno[2,3-]pyridin-6-one]",410%,* (^+ or *concentration of compound (I) >10 micro Molar)
COc1c(-c2c(Cl)sc3[nH]c(=O)c(-c4ccccc4)c(O)c23)ccc(C)c1C [Compound 201],122%,+ (^+ or *concentration of compound (I) >10 micro Molar)
COc1cccc(-c2c(O)c3c(-c4ccccc4)c(C)sc3[nH]c2=O)c1 [Compound 15],181%,* (^+ or *concentration of compound (I) >10 micro Molar)
O=c1[nH]c2sc(Cl)c(-c3ccc4c(Cl)cccc4c3O)c2c(O)c1-c1ccccc1 [Compound 184],167%,++ (^++ or **concentration of compound (I) ≦10 micro Molar)
O=c1[nH]c2sc(Cl)c(-c3ccccc3)c2c(O)c1-c1ccc(F)cc1 [Compound 172],153%,+ (^+ or *concentration of compound (I) >10 micro Molar)
COc1cccc(-c2csc3[nH]c(=O)c(-c4ccccc4)c(O)c23)c1 [Compound 47],117%,* (^+ or *concentration of compound (I) >10 micro Molar)
Cc1ccc(-c2c(Cl)sc3[nH]c(=O)c(-c4cccc(C(=O)O)c4)c(O)c23)c(O)c1 [Compound 192],193%,++ (^++ or **concentration of compound (I) ≦10 micro Molar)
O=c1[nH]c2scc(-c3ccc4ccccc4c3O)c2c(O)c1-c1ccccc1 [Compound 34],625%,* (^+ or *concentration of compound (I) >10 micro Molar)
O=c1[nH]c2sc(Cl)c(-c3ccc(F)cc3)c2c(O)c1-c1ccccc1 [Compound 140],123%,** (^++ or **concentration of compound (I) ≦10 micro Molar)
CCCc1ccc(-c2c(Cl)sc3[nH]c(=O)c(-c4ccccc4)c(O)c23)cc1 [Compound 183],146%,+ (^+ or *concentration of compound (I) >10 micro Molar)
O=c1[nH]c2sc(Cl)c(-c3ccccc3)c2c(O)c1-c1ccc(O)cc1 [Compound 156],95%,** (^++ or **concentration of compound (I) ≦10 micro Molar)
O=c1[nH]c2sc(Cl)c(-c3ccccc3)c2c(O)c1-c1cccnc1 [Compound 166],225%,+ (^+ or *concentration of compound (I) >10 micro Molar)

# More lines, main results first:
activity: Ratio between the % of control (basal activity) of compound of formula (I) at 30 μM and the % of control (basal activity) of AMP at 30 μM [1],Structure (SMILES),Activity (table III): Concentration of compound (I) for a glucose uptake equal or higher to glucose uptake induced by insulin (170 nM) [2]
131%,O=c1[nH]c2sc(Cl)c(-c3ccc(F)c(F)c3O)c2c(O)c1-c1ccccc1 [Compound 208],+ (^+ or *concentration of compound (I) >10 micro Molar)
592%,COc1ccc(-c2c(O)c3c(-c4ccccc4)c(Cl)sc3[nH]c2=O)cn1 [Compound 167],++ (^++ or **concentration of compound (I) ≦10 micro Molar)
184%,Cc1ccc(-c2c(Cl)sc3[nH]c(=O)c(-c4ccc(F)cc4)c(O)c23)c(O)c1F [Compound 206],+ (^+ or *concentration of compound (I) >10 micro Molar)
183%,Cc1ccc(-c2c(O)c3c(-c4ccc(F)cc4O)csc3[nH]c2=O)cc1 [Compound 188],+ (^+ or *concentration of compound (I) >10 micro Molar)
147%,COc1ccc(-c2c(O)c3c(-c4ccccc4)c(Cl)sc3[nH]c2=O)cc1 [Compound 157],** (^++ or **concentration of compound (I) ≦10 micro Molar)
103%,O=c1[nH]c2sc(Cl)c(-c3ccc(F)c(F)c3)c2c(O)c1-c1ccccc1 [Compound 100],** (^++ or **concentration of compound (I) ≦10 micro Molar)
305%,O=c1[nH]c2sc(Cl)c(-c3cc(F)ccc3O)c2c(O)c1-c1ccccc1 [Compound 108],* (^+ or *concentration of compound (I) >10 micro Molar)
174%,O=c1[nH]c2sc(Cl)c(-c3ccccc3)c2c(O)c1-c1cccs1 [Compound 168],++ (^++ or **concentration of compound (I) ≦10 micro Molar)
181%,COc1cccc(-c2c(Cl)sc3[nH]c(=O)c(-c4ccccc4)c(O)c23)c1 [Compound 128],* (^+ or *concentration of compound (I) >10 micro Molar)
147%,O=c1[nH]c2sc(Cl)c(-c3ccccc3)c2c(O)c1-c1ccc(C(F)(F)F)cc1 [Compound 171],+ (^+ or *concentration of compound (I) >10 micro Molar)
559%,CCc1ccc(-c2c(Cl)sc3[nH]c(=O)c(-c4ccccc4)c(O)c23)cc1 [Compound 181],++ (^++ or **concentration of compound (I) ≦10 micro Molar)
165%,Cc1ccc(-c2c(Cl)sc3[nH]c(=O)c(-c4ccccc4)c(O)c23)cc1C [Compound 196],++ (^++ or **concentration of compound (I) ≦10 micro Molar)
305%,Cc1ccc(-c2c(Cl)sc3[nH]c(=O)c(-c4ccccc4)c(O)c23)c(O)c1C [Compound 202],++ (^++ or **concentration of compound (I) ≦10 micro Molar)
